Results as given in ChEMBL document CHEMBL1201862, “PubChem BioAssay data set” (2004).
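Five concentrations, 48 hours, 96-well plates. GI50: concentration for 50% inhibition of growth.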 Calls of active or inactive are those of the source. No stated cut-off is given here; in the data, active = GI50 up to about 1.1 µM and inactive = higher.

Columns and labels:
Experiment in all cases: NCI tumour cell line growth inhibition, 48 h
786-0 = test system: 786-0
A498 = test system: A498
A549 = test system: A549
ACHN = test system: ACHN
BT-549 = test system: BT-549
CAKI-1 = test system: CAKI-1
CCRF-CEM = test system: CCRF-CEM
COLO 205 = test system: COLO 205
DU-145 = test system: DU-145
EKVX = test system: EKVX
HCC 2998 = test system: HCC 2998
HCT-116 = test system: HCT-116
HCT-15 = test system: HCT-15
HL-60 = test system: HL-60
HOP-62 = test system: HOP-62
HOP-92 = test system: HOP-92
HT-29 = test system: HT-29
Hs-578T = test system: Hs-578T
IGROV-1 = test system: IGROV-1
K562 = test system: K562
KM12 = test system: KM12
LOX IMVI = test system: LOX IMVI
M14 = test system: M14
MCF7 = test system: MCF7
MDA-MB-231 = test system: MDA-MB-231
MDA-MB-435 = test system: MDA-MB-435
MDA-N = test system: MDA-N
MOLT-4 = test system: MOLT-4
NCI-H226 = test system: NCI-H226
NCI-H23 = test system: NCI-H23
NCI-H460 = test system: NCI-H460
NCI/ADR-RES = test system: NCI/ADR-RES
OVCAR-3 = test system: OVCAR-3
OVCAR-4 = test system: OVCAR-4
OVCAR-5 = test system: OVCAR-5
OVCAR-8 = test system: OVCAR-8
PC-3 = test system: PC-3
RPMI-8226 = test system: RPMI-8226
RXF 393 = test system: RXF 393
SF-268 = test system: SF-268
SF-295 = test system: SF-295
SF-539 = test system: SF-539
SK-MEL-28 = test system: SK-MEL-28
SK-MEL-2 = test system: SK-MEL-2
SK-MEL-5 = test system: SK-MEL-5
SK-OV-3 = test system: SK-OV-3
SN12C = test system: SN12C
SNB-19 = test system: SNB-19
SNB-75 = test system: SNB-75
SR = test system: SR
SW-620 = test system: SW-620
T47D = test system: T47D
TK-10 = test system: TK-10
U-251 = test system: U-251
UACC-257 = test system: UACC-257
UACC-62 = test system: UACC-62
UO-31 = test system: UO-31
Malme-3M = test system: Malme-3M

## Cn1c(-c2ccccc2)cc(-c2ccsc2)c1-c1ccsc1
786-0
  GI50: > 100 µM (inactive)
A498
  GI50: > 100 µM (inactive)
A549
  GI50: > 100 µM (inactive)
ACHN
  GI50: > 100 µM (inactive)
BT-549
  GI50: > 100 µM (inactive)
CAKI-1
  GI50: > 100 µM (inactive)
CCRF-CEM
  GI50: 50 µM (inactive)
COLO 205
  GI50: > 100 µM (inactive)
DU-145
  GI50: > 100 µM (inactive)
EKVX
  GI50: > 100 µM (inactive)
HCC 2998
  GI50: > 100 µM (inactive)
HCT-116
  GI50: 55.5 µM (inactive)
HCT-15
  GI50: > 100 µM
HL-60
  GI50: 53.2 µM (inactive)
HOP-62
  GI50: 49.5 µM (inactive)
HOP-92
  GI50: > 100 µM (inactive)
HT-29
  GI50: 67.3 µM (inactive)
Hs-578T
  GI50: > 100 µM (inactive)
IGROV-1
  GI50: > 100 µM (inactive)
K562
  GI50: > 100 µM (inactive)
KM12
  GI50: > 100 µM (inactive)
LOX IMVI
  GI50: > 100 µM (inactive)
M14
  GI50: > 100 µM (inactive)
MCF7
  GI50: > 100 µM (inactive)
MDA-MB-231
  GI50: > 100 µM (inactive)
MDA-MB-435
  GI50: > 100 µM (inactive)
MDA-N
  GI50: > 100 µM (inactive)
MOLT-4
  GI50: > 100 µM (inactive)
NCI-H226
  GI50: 6.81 µM (inactive)
NCI-H23
  GI50: > 100 µM (inactive)
NCI-H460
  GI50: > 100 µM (inactive)
NCI/ADR-RES
  GI50: > 100 µM (inactive)
OVCAR-3
  GI50: 34.3 µM (inactive)
OVCAR-4
  GI50: > 100 µM (inactive)
OVCAR-5
  GI50: > 100 µM (inactive)
OVCAR-8
  GI50: > 100 µM (inactive)
PC-3
  GI50: > 100 µM (inactive)
RPMI-8226
  GI50: > 100 µM (inactive)
RXF 393
  GI50: 33.3 µM (inactive)
SF-268
  GI50: > 100 µM (inactive)
SF-295
  GI50: > 100 µM (inactive)
SF-539
  GI50: 95.5 µM (inactive)
SK-MEL-28
  GI50: > 100 µM (inactive)
SK-MEL-2
  GI50: > 100 µM (inactive)
SK-MEL-5
  GI50: > 100 µM (inactive)
SK-OV-3
  GI50: 95.7 µM (inactive)
SN12C
  GI50: > 100 µM (inactive)
SNB-19
  GI50: 17.2 µM (inactive)
SNB-75
  GI50: > 100 µM (inactive)
SR
  GI50: 9.66 µM (inactive)
SW-620
  GI50: > 100 µM (inactive)
T47D
  GI50: > 100 µM (inactive)
TK-10
  GI50: > 100 µM (inactive)
U-251
  GI50: > 100 µM (inactive)
UACC-257
  GI50: > 100 µM (inactive)
UACC-62
  GI50: > 100 µM (inactive)
UO-31
  GI50: > 100 µM (inactive)

## Clc1nc(NC23CC4CC(CC(C4)C2)C3)nc(NC23CC4CC(CC(C4)C2)C3)n1
786-0
  GI50: 52.5 µM (inactive)
A498
  GI50: > 100 µM (inactive)
A549
  GI50: 43.9 µM (inactive)
ACHN
  GI50: > 34.8 µM (inactive)
BT-549
  GI50: > 61.4 µM (inactive)
CAKI-1
  GI50: > 100 µM (inactive)
CCRF-CEM
  GI50: 17 µM (inactive)
COLO 205
  GI50: > 67.3 µM (inactive)
DU-145
  GI50: 56.6 µM (inactive)
EKVX
  GI50: > 89.9 µM (inactive)
HCC 2998
  GI50: 53.5 µM (inactive)
HCT-116
  GI50: 15.6 µM (inactive)
HCT-15
  GI50: 34.7 µM
HL-60
  GI50: 19.9 µM (inactive)
HOP-62
  GI50: 44.2 µM (inactive)
HOP-92
  GI50: 17.3 µM (inactive)
HT-29
  GI50: 66.1 µM (inactive)
Hs-578T
  GI50: 25 µM (inactive)
IGROV-1
  GI50: > 100 µM (inactive)
K562
  GI50: 4.62 µM (inactive)
KM12
  GI50: 41.2 µM (inactive)
LOX IMVI
  GI50: > 100 µM (inactive)
M14
  GI50: 73.1 µM (inactive)
MCF7
  GI50: 12.6 µM (inactive)
MDA-MB-231
  GI50: > 34.3 µM (inactive)
MDA-MB-435
  GI50: 92.3 µM (inactive)
MDA-N
  GI50: 46.8 µM (inactive)
MOLT-4
  GI50: 17.5 µM (inactive)
Malme-3M
  GI50: > 100 µM (inactive)
NCI-H226
  GI50: 97.9 µM (inactive)
NCI-H23
  GI50: 38.5 µM (inactive)
NCI-H460
  GI50: 61 µM (inactive)
NCI/ADR-RES
  GI50: 46 µM (inactive)
OVCAR-3
  GI50: 50.8 µM (inactive)
OVCAR-4
  GI50: 83 µM (inactive)
OVCAR-5
  GI50: > 100 µM (inactive)
OVCAR-8
  GI50: 70.1 µM (inactive)
PC-3
  GI50: 1.41 µM (inactive)
RPMI-8226
  GI50: 19.1 µM (inactive)
RXF 393
  GI50: 17.9 µM (inactive)
SF-268
  GI50: > 83.4 µM (inactive)
SF-295
  GI50: 16.4 µM (inactive)
SF-539
  GI50: > 75.9 µM (inactive)
SK-MEL-28
  GI50: > 100 µM (inactive)
SK-MEL-2
  GI50: 19.3 µM (inactive)
SK-MEL-5
  GI50: 47.3 µM (inactive)
SK-OV-3
  GI50: > 76.6 µM (inactive)
SN12C
  GI50: > 83.4 µM (inactive)
SNB-19
  GI50: > 100 µM (inactive)
SNB-75
  GI50: 18 µM (inactive)
SR
  GI50: 29 µM (inactive)
SW-620
  GI50: 62.4 µM (inactive)
T47D
  GI50: 10.5 µM (inactive)
TK-10
  GI50: > 100 µM (inactive)
U-251
  GI50: 26.7 µM (inactive)
UACC-257
  GI50: 50.7 µM (inactive)
UACC-62
  GI50: > 100 µM (inactive)
UO-31
  GI50: 23.4 µM (inactive)
